The source made the active and inactive calls.
Legend:
Type in all cases: functional
[1] = target: Protein kinase C theta type (Homo sapiens, UniProt Q04759); assay: Navigating the Kinome. Panel member name: PRKCQ
[2] = target: Dual specificity protein kinase CLK2 (Homo sapiens, UniProt P49760)
[3] = target: Dual specificity mitogen-activated protein kinase kinase 1 (Homo sapiens, UniProt Q02750); assay: Navigating the Kinome. Panel member name: MAP2K1
[4] = target: Tyrosine-protein kinase JAK2 (Homo sapiens, UniProt O60674);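 note: JAK2 tested as one member of a kinase panel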
[5] = target: Serine/threonine-protein kinase TBK1 (Homo sapiens, UniProt Q9UHD2); assay: Navigating the Kinome. Panel member name: TBK1
[6] = target: 5'-AMP-activated protein kinase catalytic subunit alpha-1 (Homo sapiens, UniProt Q13131)
[7] = target: ALK tyrosine kinase receptor (Homo sapiens, UniProt Q9UM73);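 note: ALK tested as one member of a kinase panel screen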
[8] = target: Proto-oncogene tyrosine-protein kinase receptor Ret (Homo sapiens, UniProt P07949);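 note: measured within a kinome-wide profiling panel, RET as the panel member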
[9] = target: Tyrosine-protein kinase receptor TYRO3 (Homo sapiens, UniProt Q06418);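 note: TYRO3 value obtained as one member of a kinome-wide profiling panel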
[10] = target: Serine/threonine-protein kinase D3 (Homo sapiens, UniProt O94806);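 note: determined within a kinase panel screen, with PRKCN as the panel member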
[11] = target: Death-associated protein kinase 3 (Homo sapiens, UniProt O43293);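 note: measured as one member of a kinome-wide profiling panel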
[12] = target: Activin receptor type-1 (Homo sapiens, UniProt Q04771); assay: Navigating the Kinome. Panel member name: ACVR1
[13] = target: Mitogen-activated protein kinase 8 (Homo sapiens, UniProt P45983);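 note: value comes from one member of a kinome-wide kinase profiling panel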
[14] = target: Serine/threonine-protein kinase pim-1 (Homo sapiens, UniProt P11309)
[15] = target: Aurora kinase A (Homo sapiens, UniProt O14965);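 note: value from the Navigating the Kinome kinase panel profiling, panel entry STK6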
[16] = target: Serine/threonine-protein kinase PAK 4 (Homo sapiens, UniProt O96013);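 note: value obtained within a kinome profiling panel in which PAK4 was one of the panel members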
[17] = target: Fibroblast growth factor receptor 1 (Homo sapiens, UniProt P11362)
[18] = target: Casein kinase I isoform alpha (Homo sapiens, UniProt P48729)
[19] = target: LIM domain kinase 1 (Homo sapiens, UniProt P53667); assay: Navigating the Kinome. Panel member name: LIMK1
[20] = target: Serine/threonine-protein kinase TAO1 (Homo sapiens, UniProt Q7L7X3)
[21] = target: Glycogen synthase kinase-3 alpha (Homo sapiens, UniProt P49840);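 note: GSK3A result taken from a broad kinome-wide kinase panel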
[22] = target: Mitogen-activated protein kinase kinase kinase kinase 2 (Homo sapiens, UniProt Q12851);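 note: measured as one member of a kinome-wide kinase panel, with MAP4K2 as the panel entry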
[23] = target: Hepatocyte growth factor receptor (Homo sapiens, UniProt P08581);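 note: kinase panel profiling across the kinome, with MET as the panel member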
[24] = target: Activated CDC42 kinase 1 (Homo sapiens, UniProt Q07912); assay: Navigating the Kinome. Panel member name: ACK1
[25] = target: Serine/threonine-protein kinase Chk1 (Homo sapiens, UniProt O14757);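 note: measured as one member of a kinome-wide kinase profiling panel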
[26] = target: Tyrosine-protein kinase ABL1 (Homo sapiens, UniProt P00519)
[27] = target: Vascular endothelial growth factor receptor 2 (Homo sapiens, UniProt P35968)
[28] = target: Dual specificity tyrosine-phosphorylation-regulated kinase 1B (Homo sapiens, UniProt Q9Y463); assay: Navigating the Kinome. Panel member name: DYRK1B
[29] = target: cAMP-dependent protein kinase catalytic subunit PRKX (Homo sapiens, UniProt P51817)
[30] = target: Platelet-derived growth factor receptor alpha (Homo sapiens, UniProt P16234); assay: Navigating the Kinome. Panel member name: PDGFRA
[31] = target: Leucine-rich repeat serine/threonine-protein kinase 2 (Homo sapiens, UniProt Q5S007);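 note: value from a broad kinome-wide panel profiling study in which LRRK2 was one of the kinases tested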
[32] = target: Aurora kinase B (Homo sapiens, UniProt Q96GD4)
[33] = target: Cyclin-dependent kinase 19 (Homo sapiens, UniProt Q9BWU1); assay: Navigating the Kinome. Panel member name: CDC2L6
[34] = target: Rho-associated protein kinase 1 (Homo sapiens, UniProt Q13464);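 note: measured within a broad kinome-wide panel profiling many kinases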
[35] = target: Serine/threonine-protein kinase Nek2 (Homo sapiens, UniProt P51955)
[36] = target: Cyclin-dependent kinase 8 (Homo sapiens, UniProt P49336); assay: Navigating the Kinome. Panel member name: CDK8
[37] = target: Cyclin-dependent kinase 7 (Homo sapiens, UniProt P50613);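 note: value comes from a kinome-wide kinase profiling panel in which CDK7 is one member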
[38] = target: Vascular endothelial growth factor receptor 1 (Homo sapiens, UniProt P17948);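 note: measured within a kinome-wide profiling panel, FLT1 as the panel member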
[39] = target: Glycogen synthase kinase-3 beta (Homo sapiens, UniProt P49841);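 note: value comes from a broad kinome profiling panel, with GSK3B as the panel member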
[40] = target: Cyclin-dependent kinase 9 (Homo sapiens, UniProt P50750);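 note: value from the CDK9 entry of a kinome-spanning kinase panel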
[41] = target: BDNF/NT-3 growth factors receptor (Homo sapiens, UniProt Q16620);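 note: NTRK2 measured as one member of a broad kinome-wide kinase profiling panel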
[42] = target: cAMP-dependent protein kinase catalytic subunit alpha (Homo sapiens, UniProt P17612)
[43] = target: Dual specificity protein kinase CLK4 (Homo sapiens, UniProt Q9HAZ1)
[44] = target: Mitogen-activated protein kinase kinase kinase kinase 4 (Homo sapiens, UniProt O95819)
[45] = target: Macrophage-stimulating protein receptor (Homo sapiens, UniProt Q04912); assay: Navigating the Kinome. Panel member name: MST1R
[46] = target: Macrophage colony-stimulating factor 1 receptor (Homo sapiens, UniProt P07333);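 note: value comes from the Navigating the Kinome screening panel, CSF1R member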
[47] = target: Dual specificity mitogen-activated protein kinase kinase 2 (Homo sapiens, UniProt P36507); assay: Navigating the Kinome. Panel member name: MAP2K2
[48] = target: Dual specificity tyrosine-phosphorylation-regulated kinase 1A (Homo sapiens, UniProt Q13627);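 note: measured against DYRK1A as one member of a broad kinome profiling panel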
[49] = target: Inhibitor of nuclear factor kappa-B kinase subunit epsilon (Homo sapiens, UniProt Q14164); assay: Navigating the Kinome. Panel member name: IKBKE
[50] = target: Calcium/calmodulin-dependent protein kinase type II subunit alpha (Homo sapiens, UniProt Q9UQM7); assay: Navigating the Kinome. Panel member name: CAMK2A
[51] = target: Leukocyte tyrosine kinase receptor (Homo sapiens, UniProt P29376); assay: Navigating the Kinome. Panel member name: LTK
[52] = target: Melanin-concentrating hormone receptor 1 (Homo sapiens, UniProt Q99705); assay: Late-stage fluorescence-based counterscreen for antagonists of the G-protein coupled receptor 7 (GPR7): cell-based dose response assay to identify antagonists of the melanin-concentrating hormone receptor 1 (MCHR1) Set 6.
[53] = target: Neuropeptides B/W receptor type 1 (Homo sapiens, UniProt P48145); assay: human NPBW1 receptor blockade, IC50 – cell-based, fluorescence, dose response, set 6, late-stage follow-up (AID 588583)
[54] = target: Phosphorylase b kinase gamma catalytic chain, liver/testis isoform (Homo sapiens, UniProt P15735);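 note: PHKG2 measured as one member of a kinome-wide kinase panel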
[55] = target: RAC-gamma serine/threonine-protein kinase (Homo sapiens, UniProt Q9Y243)
[56] = target: Testis-specific serine/threonine-protein kinase 2 (Homo sapiens, UniProt Q96PF2);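 note: part of the Navigating the Kinome panel, target entry STK22B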
[57] = target: SRSF protein kinase 1 (Homo sapiens, UniProt Q96SB4);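 note: measured as one member of a kinome-wide kinase profiling panel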
[58] = target: Casein kinase II subunit alpha (Homo sapiens, UniProt P68400)
[59] = target: Calcium/calmodulin-dependent protein kinase type II subunit delta (Homo sapiens, UniProt Q13557)
[60] = target: Tyrosine-protein kinase JAK3 (Homo sapiens, UniProt P52333)
[61] = target: Casein kinase I isoform gamma-1 (Homo sapiens, UniProt Q9HCP0);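 note: measured as the CSNK1G1 member of a kinome profiling panel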
[62] = target: Proto-oncogene tyrosine-protein kinase ROS (Homo sapiens, UniProt P08922);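 note: ROS1 tested as one member of a kinome-wide kinase panel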
[63] = target: Testis-specific serine/threonine-protein kinase 1 (Homo sapiens, UniProt Q9BXA7)
[64] = target: Homeodomain-interacting protein kinase 2 (Homo sapiens, UniProt Q9H2X6);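 note: measured within a kinome-wide kinase profiling panel, HIPK2 being one panel member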
[65] = target: Calcium/calmodulin-dependent protein kinase kinase 2 (Homo sapiens, UniProt Q96RR4); assay: Navigating the Kinome. Panel member name: CAMKK2
[66] = target: Mitogen-activated protein kinase 13 (Homo sapiens, UniProt O15264)
[67] = target: Casein kinase I isoform delta (Homo sapiens, UniProt P48730);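 note: measured as one member (CSNK1D) of a kinome panel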
[68] = target: Calcium/calmodulin-dependent protein kinase type II subunit beta (Homo sapiens, UniProt Q13554)
[69] = target: Mitogen-activated protein kinase 1 (Homo sapiens, UniProt P28482)
[70] = target: Focal adhesion kinase 1 (Homo sapiens, UniProt Q05397);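 note: measured as one member of a kinome panel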
[71] = target: Interleukin-1 receptor-associated kinase 1 (Homo sapiens, UniProt P51617);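 note: IRAK1 tested as one member of a kinome panel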
[72] = target: Interleukin-1 receptor-associated kinase 4 (Homo sapiens, UniProt Q9NWZ3)
[73] = target: Tyrosine-protein kinase Fyn (Homo sapiens, UniProt P06241)
[74] = target: Homeodomain-interacting protein kinase 4 (Homo sapiens, UniProt Q8NE63)
[75] = target: Serine/threonine-protein kinase pim-2 (Homo sapiens, UniProt Q9P1W9);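 note: value comes from a broad kinase panel profiling study in which PIM2 was one of the panel members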
[76] = target: Serine/threonine-protein kinase DCLK1 (Homo sapiens, UniProt O15075);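 note: affinity for DCLK1 (listed as DCAMKL1) measured as one member of a kinome-wide kinase profiling panel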
[77] = target: Receptor tyrosine-protein kinase erbB-4 (Homo sapiens, UniProt Q15303);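 note: ERBB4 member of a kinome-wide kinase profiling panel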
[78] = target: Serine/threonine-protein kinase MRCK alpha (Homo sapiens, UniProt Q5VT25)
[79] = target: Serine/threonine-protein kinase 3 (Homo sapiens, UniProt Q13188);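 note: measured as one member of a kinome-wide kinase panel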

Cyclin-dependent kinase 9, sequence (P50750 whole entry): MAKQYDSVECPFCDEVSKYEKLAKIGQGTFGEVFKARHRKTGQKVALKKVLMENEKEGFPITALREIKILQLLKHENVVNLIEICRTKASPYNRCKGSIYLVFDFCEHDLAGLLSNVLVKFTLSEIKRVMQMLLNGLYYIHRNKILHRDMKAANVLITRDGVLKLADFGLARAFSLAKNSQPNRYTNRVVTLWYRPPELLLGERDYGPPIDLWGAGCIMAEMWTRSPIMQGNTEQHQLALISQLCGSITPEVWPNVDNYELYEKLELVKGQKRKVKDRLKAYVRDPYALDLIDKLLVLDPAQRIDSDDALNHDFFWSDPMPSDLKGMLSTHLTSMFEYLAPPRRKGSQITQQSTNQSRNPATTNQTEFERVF
BDNF/NT-3 growth factors receptor, sequence (Q16620 whole entry): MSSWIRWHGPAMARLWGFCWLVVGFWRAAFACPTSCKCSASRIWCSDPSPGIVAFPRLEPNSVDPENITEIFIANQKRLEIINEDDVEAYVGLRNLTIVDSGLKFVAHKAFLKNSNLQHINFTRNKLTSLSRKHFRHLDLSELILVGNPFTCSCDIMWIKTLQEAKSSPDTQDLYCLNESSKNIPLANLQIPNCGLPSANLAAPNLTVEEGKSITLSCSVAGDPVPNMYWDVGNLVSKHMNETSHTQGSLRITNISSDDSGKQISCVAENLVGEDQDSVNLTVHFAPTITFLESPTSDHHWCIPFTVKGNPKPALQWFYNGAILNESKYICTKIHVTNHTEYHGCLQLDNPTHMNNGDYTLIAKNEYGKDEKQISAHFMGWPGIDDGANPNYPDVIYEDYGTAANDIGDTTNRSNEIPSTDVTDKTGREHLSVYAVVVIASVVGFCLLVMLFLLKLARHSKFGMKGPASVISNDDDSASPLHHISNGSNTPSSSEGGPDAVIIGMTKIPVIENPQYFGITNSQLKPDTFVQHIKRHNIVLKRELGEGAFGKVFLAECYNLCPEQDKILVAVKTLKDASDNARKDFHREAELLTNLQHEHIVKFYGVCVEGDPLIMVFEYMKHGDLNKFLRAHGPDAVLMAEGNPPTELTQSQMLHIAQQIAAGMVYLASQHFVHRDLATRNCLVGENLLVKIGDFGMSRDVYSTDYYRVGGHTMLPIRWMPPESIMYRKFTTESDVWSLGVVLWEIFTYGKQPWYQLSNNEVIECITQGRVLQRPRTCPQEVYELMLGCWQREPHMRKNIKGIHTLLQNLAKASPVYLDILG
Glycogen synthase kinase-3 alpha, sequence (P49840 whole entry): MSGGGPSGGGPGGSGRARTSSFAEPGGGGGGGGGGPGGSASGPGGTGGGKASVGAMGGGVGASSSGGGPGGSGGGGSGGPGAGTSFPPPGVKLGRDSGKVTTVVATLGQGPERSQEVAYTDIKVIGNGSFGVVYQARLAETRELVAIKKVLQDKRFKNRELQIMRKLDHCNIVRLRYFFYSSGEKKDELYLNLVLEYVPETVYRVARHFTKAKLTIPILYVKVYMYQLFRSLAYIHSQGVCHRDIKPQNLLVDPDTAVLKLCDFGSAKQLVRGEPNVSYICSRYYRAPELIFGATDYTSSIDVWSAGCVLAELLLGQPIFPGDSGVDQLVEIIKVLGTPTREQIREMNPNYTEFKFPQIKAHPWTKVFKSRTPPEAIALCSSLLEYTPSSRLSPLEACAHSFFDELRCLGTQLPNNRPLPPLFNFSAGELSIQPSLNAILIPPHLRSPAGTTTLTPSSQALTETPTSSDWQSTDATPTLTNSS
Platelet-derived growth factor receptor alpha, sequence (P16234 whole entry): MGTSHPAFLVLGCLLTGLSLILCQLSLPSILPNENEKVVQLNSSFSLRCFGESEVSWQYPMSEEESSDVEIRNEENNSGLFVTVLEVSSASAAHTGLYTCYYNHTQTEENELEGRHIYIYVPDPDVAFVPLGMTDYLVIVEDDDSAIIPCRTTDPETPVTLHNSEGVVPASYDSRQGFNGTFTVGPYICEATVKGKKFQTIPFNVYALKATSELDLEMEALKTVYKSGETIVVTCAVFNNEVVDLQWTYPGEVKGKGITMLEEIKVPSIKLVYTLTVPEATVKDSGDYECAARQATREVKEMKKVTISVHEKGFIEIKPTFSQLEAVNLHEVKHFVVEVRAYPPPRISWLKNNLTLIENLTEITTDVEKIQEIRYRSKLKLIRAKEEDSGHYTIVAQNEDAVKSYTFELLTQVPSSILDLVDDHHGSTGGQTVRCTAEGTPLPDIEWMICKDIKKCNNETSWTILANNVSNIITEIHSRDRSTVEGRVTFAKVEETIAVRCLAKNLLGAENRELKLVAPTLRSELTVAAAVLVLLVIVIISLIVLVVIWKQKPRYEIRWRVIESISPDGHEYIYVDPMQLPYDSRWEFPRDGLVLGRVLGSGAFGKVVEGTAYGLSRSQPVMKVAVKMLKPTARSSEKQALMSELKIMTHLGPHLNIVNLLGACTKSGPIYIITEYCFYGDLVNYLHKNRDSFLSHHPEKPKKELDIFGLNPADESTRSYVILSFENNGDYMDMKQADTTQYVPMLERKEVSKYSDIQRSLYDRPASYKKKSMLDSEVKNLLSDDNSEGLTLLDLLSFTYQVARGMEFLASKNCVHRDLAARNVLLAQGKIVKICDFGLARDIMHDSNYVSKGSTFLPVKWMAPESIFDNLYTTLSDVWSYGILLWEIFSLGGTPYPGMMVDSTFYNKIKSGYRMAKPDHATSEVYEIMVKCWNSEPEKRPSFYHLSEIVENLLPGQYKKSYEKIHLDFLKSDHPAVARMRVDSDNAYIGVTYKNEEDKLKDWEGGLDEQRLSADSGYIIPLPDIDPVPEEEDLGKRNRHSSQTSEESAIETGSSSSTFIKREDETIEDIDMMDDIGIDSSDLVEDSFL
Calcium/calmodulin-dependent protein kinase type II subunit alpha, sequence (Q9UQM7 whole entry): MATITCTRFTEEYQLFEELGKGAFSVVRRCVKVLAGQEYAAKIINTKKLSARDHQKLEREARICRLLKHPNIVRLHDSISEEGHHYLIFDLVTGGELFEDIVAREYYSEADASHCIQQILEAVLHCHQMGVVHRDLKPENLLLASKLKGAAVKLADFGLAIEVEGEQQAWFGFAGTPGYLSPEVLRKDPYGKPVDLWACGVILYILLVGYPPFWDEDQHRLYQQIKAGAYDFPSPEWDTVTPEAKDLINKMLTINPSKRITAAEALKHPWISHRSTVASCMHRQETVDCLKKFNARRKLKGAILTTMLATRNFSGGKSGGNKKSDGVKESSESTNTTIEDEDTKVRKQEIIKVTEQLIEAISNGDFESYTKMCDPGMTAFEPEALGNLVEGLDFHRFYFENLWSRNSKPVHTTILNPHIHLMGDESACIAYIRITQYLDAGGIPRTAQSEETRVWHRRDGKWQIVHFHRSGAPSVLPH
Cyclin-dependent kinase 7, sequence (P50613 whole entry): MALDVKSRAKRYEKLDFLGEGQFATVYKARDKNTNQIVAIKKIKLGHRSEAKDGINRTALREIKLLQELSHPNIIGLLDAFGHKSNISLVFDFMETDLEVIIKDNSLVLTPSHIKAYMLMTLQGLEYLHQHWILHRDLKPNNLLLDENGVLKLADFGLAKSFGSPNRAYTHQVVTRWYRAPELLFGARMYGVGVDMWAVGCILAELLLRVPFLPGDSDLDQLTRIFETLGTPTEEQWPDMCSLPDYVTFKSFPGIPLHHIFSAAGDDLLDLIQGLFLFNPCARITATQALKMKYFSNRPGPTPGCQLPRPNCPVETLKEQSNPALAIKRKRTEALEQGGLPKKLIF
Dual specificity mitogen-activated protein kinase kinase 1, sequence (Q02750 whole entry): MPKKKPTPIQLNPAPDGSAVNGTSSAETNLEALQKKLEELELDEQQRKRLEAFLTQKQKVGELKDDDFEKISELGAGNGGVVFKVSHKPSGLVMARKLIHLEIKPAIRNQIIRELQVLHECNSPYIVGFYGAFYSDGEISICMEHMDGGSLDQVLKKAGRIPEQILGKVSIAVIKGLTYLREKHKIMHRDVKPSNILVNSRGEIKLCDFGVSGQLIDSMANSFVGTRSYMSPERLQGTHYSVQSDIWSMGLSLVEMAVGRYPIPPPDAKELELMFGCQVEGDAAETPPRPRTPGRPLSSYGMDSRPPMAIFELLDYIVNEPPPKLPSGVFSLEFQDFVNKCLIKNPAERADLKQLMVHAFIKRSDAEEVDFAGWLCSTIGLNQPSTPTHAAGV
Dual specificity protein kinase CLK2, sequence (P49760 whole entry): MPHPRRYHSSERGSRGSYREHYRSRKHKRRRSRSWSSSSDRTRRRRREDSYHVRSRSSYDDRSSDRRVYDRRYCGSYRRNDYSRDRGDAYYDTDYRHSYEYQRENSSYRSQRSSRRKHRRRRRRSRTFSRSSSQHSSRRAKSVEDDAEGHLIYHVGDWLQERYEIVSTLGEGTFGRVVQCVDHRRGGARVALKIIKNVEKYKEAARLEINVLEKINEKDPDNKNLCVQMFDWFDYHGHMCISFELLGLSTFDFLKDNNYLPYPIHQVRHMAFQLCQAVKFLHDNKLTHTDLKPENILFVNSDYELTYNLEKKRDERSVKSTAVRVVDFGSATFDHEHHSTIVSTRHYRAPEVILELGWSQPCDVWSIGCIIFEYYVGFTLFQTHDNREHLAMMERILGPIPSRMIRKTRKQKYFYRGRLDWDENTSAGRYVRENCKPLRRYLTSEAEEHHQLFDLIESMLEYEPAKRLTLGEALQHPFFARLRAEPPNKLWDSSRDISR
Cyclin-dependent kinase 19, sequence (Q9BWU1 whole entry): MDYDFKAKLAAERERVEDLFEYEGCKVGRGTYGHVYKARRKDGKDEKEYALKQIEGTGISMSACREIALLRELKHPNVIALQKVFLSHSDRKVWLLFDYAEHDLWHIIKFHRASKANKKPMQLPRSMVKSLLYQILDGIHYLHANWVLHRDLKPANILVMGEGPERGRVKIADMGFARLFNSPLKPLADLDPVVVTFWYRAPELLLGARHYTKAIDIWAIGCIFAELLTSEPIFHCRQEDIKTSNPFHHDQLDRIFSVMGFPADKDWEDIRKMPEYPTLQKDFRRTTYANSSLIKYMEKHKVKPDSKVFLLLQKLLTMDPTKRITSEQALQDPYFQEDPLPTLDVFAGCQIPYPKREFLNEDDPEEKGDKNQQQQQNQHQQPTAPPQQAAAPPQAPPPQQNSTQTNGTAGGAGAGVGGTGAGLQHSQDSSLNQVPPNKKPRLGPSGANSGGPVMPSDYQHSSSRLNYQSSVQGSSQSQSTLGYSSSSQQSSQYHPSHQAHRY

For `Nc1ncnc2c1N=C(c1ccccc1)CCN2`, the Ki [1] was 39.8 µM (active), the Ki [2] was 5.01 µM (active) and the Ki [3] was 5.01 µM (active). For the same compound, the Ki [4] was 100 µM (active), the Ki [5] was 39.8 µM (active) and the Ki [6] was 15.8 µM (active). For the same compound, the Ki [7] was 10 µM (active), the Ki [8] was 12.6 µM (active) and the Ki [9] was 15.8 µM (active). The Ki [10] was 12.6 µM (active), the Ki [11] was 7.94 µM (active) and the Ki [12] was 10 µM (active). For the same compound, the Ki [13] was 79.4 µM (active), the Ki [14] was 20 µM (active) and the Ki [15] was 7.94 µM (active). For the same compound, the Ki [16] was 100 µM (active), the Ki [17] was 63.1 µM (active) and the Ki [18] was 15.8 µM (active). For the same compound, the Ki [19] was 12.6 µM (active), the Ki [20] was 79.4 µM (active) and the Ki [21] was 63.1 µM (active). For the same compound, the Ki [22] was 10 µM (active), the Ki [23] was 20 µM (active) and the Ki [24] was 39.8 µM (active). The Ki [25] was 25.1 µM (active), the Ki [26] was 3.98 µM (active) and the Ki [27] was 2 µM (active). For the same compound, the Ki [28] was 2 µM (active), the Ki [29] was 79.4 µM (active) and the Ki [30] was 25.1 µM (active). For the same compound, the Ki [31] was 2 µM (active), the Ki [32] was 1.58 µM (active) and the Ki [33] was > 100 µM (inactive). The Ki [34] was 25.1 µM (active), the Ki [35] was 31.6 µM (active) and the Ki [36] was 12.6 µM (active). The Ki [37] was 39.8 µM (active), the Ki [38] was 12.6 µM (active) and the Ki [39] was 50.1 µM (active). For the same compound, the Ki [40] was > 63.1 µM (inactive), the Ki [41] was 63.1 µM (active) and the Ki [42] was 12.6 µM (active). For the same compound, the Ki [43] was 0.398 µM (active), the Ki [44] was 0.794 µM (active) and the Ki [45] was 2 µM (active). For the same compound, the Ki [46] was > 100 µM (inactive), the Ki [47] was 6.31 µM (active) and the Ki [48] was 3.16 µM (active). For the same compound, the Ki [49] was 31.6 µM (active), the Ki [50] was 31.6 µM (active) and the Ki [51] was 3.98 µM (active).

With `C=Cc1cnn(Cc2cccc3ccccc23)c(=O)c1C(C#N)c1ccccc1` (centres undefined) the IC50 [52] was 2.55 µM (active) and the IC50 [53] was 2.55 µM (active).

For `Cc1cc(Nc2cc(N3CCN(C)CC3)nc(Sc3ccc(NC(=O)C4CC4)cc3)n2)[nH]n1` [TOZASERTIB], the Ki [2] was > 3.98 µM (inactive), the Ki [3] was 1.26 µM (active) and the Ki [54] was > 5.01 µM (inactive). For the same compound, the Ki [55] was > 10 µM (inactive), the Ki [56] was > 1.58 µM (inactive) and the Ki [57] was > 7.94 µM (inactive). The Ki [58] was > 6.31 µM (inactive), the Ki [59] was > 6.31 µM (inactive) and the Ki [60] was > 5.01 µM (inactive). The Ki [61] was > 6.31 µM (inactive), the Ki [62] was 0.158 µM (active) and the Ki [63] was > 1.58 µM (inactive). For the same compound, the Ki [64] was > 3.16 µM (inactive), the Ki [65] was > 2.51 µM (inactive) and the Ki [66] was > 7.94 µM (inactive). The Ki [21] was > 3.98 µM (inactive), the Ki [67] was > 7.94 µM (inactive) and the Ki [68] was > 7.94 µM (inactive). For the same compound, the Ki [69] was > 7.94 µM (inactive), the Ki [70] was > 6.31 µM (inactive) and the Ki [71] was > 7.94 µM (inactive). For the same compound, the Ki [30] was > 0.501 µM (inactive), the Ki [72] was 2.51 µM (active) and the Ki [33] was 0.2 µM (active). The Ki [73] was 3.16 µM (active), the Ki [74] was > 7.94 µM (inactive) and the Ki [75] was > 1.58 µM (inactive). For the same compound, the Ki [76] was > 10 µM (inactive), the Ki [37] was > 3.98 µM (inactive) and the Ki [40] was > 1.58 µM (inactive). For the same compound, the Ki [41] was 0.316 µM (active), the Ki [77] was > 3.98 µM (inactive) and the Ki [78] was > 10 µM (inactive). For the same compound, the Ki [48] was > 2 µM (inactive), the Ki [50] was > 3.98 µM (inactive) and the Ki [79] was > 2.51 µM (inactive).

Source: ChEMBL document CHEMBL1201862, “PubChem BioAssay data set” (2004)
